Reference: patent US8580738B2, “Methods for treatment of reperfusion injury and other cardiac conditions” (The Board of Regents of the University of Texas System, priority 2007, dated 2013)
“Also recorded” adds a separate entry of the source. Where two headings read alike, the source gives them in different places. Where no end group is shown, it is not given here.

Legend:
[1] = system: rat myocardial ischemia-reperfusion model; assay: Rat myocardial ischemia-reperfusion model (30-min LAD occlusion, 4-hr reperfusion), infarct size; format: in vivo; conditions: for infarct size: 30-min ischemia, 4-hr reperfusion, drug i.v. before ischemia, saline control 25±3%
Procedure: Rat MI model is created by 30-min LAD ligation followed by 4-h reperfusion.
(T+C)H: with high dose of terbutaline 1 mg/kg.
Experimental Myocardial Ischemia-Reperfusion Model. The rat myocardial ischemia-reperfusion model will be used (Birnbaum et al., 2005; Huang et al., 2007). This model consists of 30 min coronary artery occlusion followed by 4-hr reperfusion.
Saline (0.5 ml) will be infused to rats serving as control.
Each antagonist or their combination will be infused 20-min prior to DPDPE infusion. Arterial blood pressure and heart rate will be monitored continuously throughout the experiments.

[2] = system: calcitonin-gene related peptide mRNA in intrinsic cardiac adrenergic cells; assay: CGRP mRNA regulation in isolated rat intrinsic cardiac adrenergic (ICA) cells, RT-PCR / quantitative real-time PCR; format: cell-based; conditions: for increase in calcitonin-gene related peptide mRNA (quantitative real-time PCR): isolated rat ICA cells, 60-min treatment, DPDPE 100 nM or epinephrine 1 μmol; for increase in calcitonin-gene related peptide mRNA (quantitative real-time PCR) / effect on calcitonin-gene related peptide mRNA levels: FIG. 3; for effect on calcitonin-gene related peptide mRNA levels: rat ICA cells
Procedure: 0-h represents immediately after 60-min drug treatment. 6-h and 24-h represent 6 and 24 hrs after 60 min drug treatment, respectively. Epi: epinephrine. UT: DPDPE-untreated.
RNA load is verified by the amount of GAPDH. Bar graphs are data normalized to their respective GAPDH mRNA.

[3] = system: left ventricular systolic function; assay: Left ventricular function by echocardiography after intravenous DPDPE; format: in vivo, rat
Excerpt: The measurements were obtained from left ventricular short-axis view using echocardiography.
Intravenous infusion of δ-opioid agonist DPDPE to rats causes sustained increase in left ventricular systolic function as reflected by increased left ventricular fractional shortening and ejection fraction (FIG. 10). The fractional shortening and ejection fraction are two clinical parameters used for evaluating left ventricular function assayed by echocardiograph. This positive inotropic effect elicited by DPDPE sustains for more than 40 minutes following drug injection. Augmenting cardiac contractile function by δ-opioid receptor agonist has not been reported. δ-opioid agonists can augment heart performance and can be beneficial for clinical treatment of congestive heart failure.

[4] = cited from earlier work
[5] = DPDPE 100 μg/kg i.v., rats n=3, LV short-axis echocardiography, FIG. 10

CGRP8-37: calcitonin-gene related peptide receptor antagonist (VTHRLAGLLSRSGGVVKNNFVPTNVGSKAF; ends and bridges not checked; UniProt P06881 90-119, looked up, fragment)
infarct size ([1]; FIG. 6): 35±8%
increase in infarct size compared to saline control ([1]; CGRP8-37 i.v. 30 min before onset of myocardial ischemia, FIG. 6): 38%

Cc1ccc(OCC(O)C(C)NC(C)C)c2c1CCC2 (stereo not drawn) [ICI-118551]
effect on epinephrine-induced CGRP gene upregulation ([2]; ICA cells, epinephrine in the presence of ICI-118551, FIG. 5): epinephrine failed to increase; also recorded: attenuated
effect on epinephrine-induced CGRP mRNA regulation ([2]; ICI at 50 μmol/L, ICA cells, FIG. 5): completely eliminated

CC(C)(C)NCC(O)c1cc(O)cc(O)c1 (stereo not drawn) [terbutaline]
effect on infarct size, drug delivered before LAD ligation / acute MI ([1]; i.v. infusion before LAD ligation, terbutaline 100 μg/kg, CGRP 30 ng/kg or combination, FIG. 9): no significant infarct-size-reduction

CNC[C@H](O)c1ccc(O)c(O)c1 [epinephrine]
increase in calcitonin-gene related peptide mRNA compared to untreated (UT) group ([2]; ICA cells treated with epinephrine for 1 hr, FIG. 5): 6 fold
duration of CGRP gene regulatory effect ([2]; following a brief 60-min epinephrine treatment): 24 h
increase in calcitonin-gene related peptide mRNA (quantitative real-time PCR) [2]: 14 fold
effect on calcitonin-gene related peptide mRNA levels [2]: increases

(D-Pen^2, D-Pen^5)-enkephalin [DPDPE]
infarct size ([1]; FIG. 6): 11±2%
reduction of infarct size compared to control group ([1]; δ-opioid agonist i.v. before ischemia, FIG. 6): 57%
increase in ejection fraction [3, 5]: 23%
increase in fractional shortening [3, 5]: 54%
duration of positive inotropic effect following drug injection ([3]; i.v. DPDPE, rats): more than 40 minutes
increase in calcitonin-gene related peptide mRNA (quantitative real-time PCR) [2]: 2 fold
effect on calcitonin-gene related peptide mRNA levels [2]: modestly increases

COc1cccc2c1C(=O)c1c(O)c3c(c(O)c1C2=O)C[C@@](O)(C(=O)CO)C[C@@H]3O[C@H]1C[C@H](N)[C@H](O)[C@H](C)O1 [doxorubicin]
incidence of doxorubicin-induced cardiomyopathy ([4]; dose of 501-550 mg/m^2 body surface area): > 5%
incidence of doxorubicin-induced cardiomyopathy ([4]; dose over 550 mg/m^2): 30%
